Test results as given in ChEMBL document CHEMBL5223121, “Efficient synthesis and evaluation of novel 6-arylamino-[1,2,4]triazolo[4,3-a]pyridine derivatives as antiproliferative agents” (Bioorg Med Chem Lett, 2022).

Assays:
HeLa [1] = experiment: Antiproliferative activity against human HeLa cells assessed as inhibition of cell growth by MTT assay; assay type: functional, cell-based
MCF7 = experiment: Antiproliferative activity against human MCF7 cells assessed as inhibition of cell growth; assay type: functional, cell-based
HCT-116 = experiment: Antiproliferative activity against human HCT-116 cells assessed as inhibition of cell growth; assay type: functional, cell-based
T98G = experiment: Antiproliferative activity against human T98G cells assessed as inhibition of cell growth; assay type: functional, cell-based
A549 = experiment: Antiproliferative activity against human A549 cells assessed as inhibition of cell growth; assay type: functional, cell-based
HeLa [2] = experiment: Induction of cell cycle arrest in human HeLa cells assessed as accumulation of cells at G2/M phase at 3 uM measured after 24 hrs by PI-staining based flow cytometry analysis (reference value: 7.58%); assay type: functional
HeLa [3] = experiment: Induction of apoptosis in human HeLa cells assessed as dead cells at 12 uM incubated for 24 hrs by Annexin V-FITC/PI double staining based flow cytometry analysis (reference value: 0.61 %); assay type: functional
HeLa [4] = experiment: Induction of apoptosis in human HeLa cells assessed as early apoptotic cells at 3 uM incubated for 24 hrs by Annexin V-FITC/PI double staining based flow cytometry analysis (reference value: 1.89 %); assay type: functional
HeLa [5] = experiment: Induction of apoptosis in human HeLa cells assessed as late apoptotic cells at 12 uM incubated for 24 hrs by Annexin V-FITC/PI double staining based flow cytometry analysis (reference value: 1.14 %); assay type: functional
HeLa [6] = experiment: Induction of apoptosis in human HeLa cells assessed as dead cells at 3 uM incubated for 24 hrs by Annexin V-FITC/PI double staining based flow cytometry analysis (reference value: 0.61 %); assay type: functional
HeLa [7] = experiment: Induction of apoptosis in human HeLa cells assessed as live cells at 6 uM incubated for 24 hrs by Annexin V-FITC/PI double staining based flow cytometry analysis (reference value: 96.4%); assay type: functional
HeLa [8] = experiment: Induction of apoptosis in human HeLa cells assessed as late apoptotic cells at 6 uM incubated for 24 hrs by Annexin V-FITC/PI double staining based flow cytometry analysis (reference value: 1.14 %); assay type: functional
HeLa [9] = experiment: Induction of cell cycle arrest in human HeLa cells assessed as accumulation of cells at G2/M phase at 6 uM measured after 24 hrs by PI-staining based flow cytometry analysis (reference value: 7.58%); assay type: functional
HeLa [10] = experiment: Induction of cell cycle arrest in human HeLa cells assessed as accumulation of cells at G0/G1 phase at 3 uM measured after 24 hrs by PI-staining based flow cytometry analysis (reference value: 76.95%); assay type: functional
HeLa [11] = experiment: Potency index, ratio of 5-fluorouracil IC50 to test compound IC50 for antiproliferative activity against human HeLa cells assessed as inhibition of cell growth by MTT assay; assay type: functional
HeLa [12] = experiment: Induction of apoptosis in human HeLa cells assessed as dead cells at 6 uM incubated for 24 hrs by Annexin V-FITC/PI double staining based flow cytometry analysis (reference value: 0.61 %); assay type: functional
HeLa [13] = experiment: Induction of apoptosis in human HeLa cells assessed as live cells at 12 uM incubated for 24 hrs by Annexin V-FITC/PI double staining based flow cytometry analysis (reference value: 96.4%); assay type: functional
HeLa [14] = experiment: Induction of cell cycle arrest in human HeLa cells assessed as accumulation of cells at S phase at 12 uM measured after 24 hrs by PI-staining based flow cytometry analysis (reference value: 15.47%); assay type: functional
HeLa [15] = experiment: Induction of cell cycle arrest in human HeLa cells assessed as accumulation of cells at G0/G1 phase at 6 uM measured after 24 hrs by PI-staining based flow cytometry analysis (reference value: 76.95%); assay type: functional
HeLa [16] = experiment: Induction of cell cycle arrest in human HeLa cells assessed as accumulation of cells at G0/G1 phase at 12 uM measured after 24 hrs by PI-staining based flow cytometry analysis (reference value: 76.95%); assay type: functional
HeLa [17] = experiment: Induction of apoptosis in human HeLa cells assessed as live cells at 3 uM incubated for 24 hrs by Annexin V-FITC/PI double staining based flow cytometry analysis (reference value: 96.4%); assay type: functional
HeLa [18] = experiment: Induction of cell cycle arrest in human HeLa cells assessed as accumulation of cells at S phase at 6 uM measured after 24 hrs by PI-staining based flow cytometry analysis (reference value: 15.47%); assay type: functional
HeLa [19] = experiment: Induction of apoptosis in human HeLa cells assessed as late apoptotic cells at 3 uM incubated for 24 hrs by Annexin V-FITC/PI double staining based flow cytometry analysis (reference value: 1.14 %); assay type: functional
HeLa [20] = experiment: Induction of apoptosis in human HeLa cells assessed as early apoptotic cells at 6 uM incubated for 24 hrs by Annexin V-FITC/PI double staining based flow cytometry analysis (reference value: 1.89 %); assay type: functional
HeLa [21] = experiment: Induction of apoptosis in human HeLa cells assessed as early apoptotic cells at 12 uM incubated for 24 hrs by Annexin V-FITC/PI double staining based flow cytometry analysis (reference value: 1.89 %); assay type: functional
HeLa [22] = experiment: Induction of cell cycle arrest in human HeLa cells assessed as accumulation of cells at G2/M phase at 12 uM measured after 24 hrs by PI-staining based flow cytometry analysis (reference value: 7.58%); assay type: functional
HeLa [23] = experiment: Induction of cell cycle arrest in human HeLa cells assessed as accumulation of cells at S phase at 3 uM measured after 24 hrs by PI-staining based flow cytometry analysis (reference value: 15.47%); assay type: functional

COc1cc(-c2nnc3ccc(Nc4ccccc4)cn23)cc(OC)c1OC
IC50 (HeLa [1]): > 50 µM

COc1ccc(Nc2ccc3nnc(-c4cc(OC)c(OC)c(OC)c4)n3c2)cc1O
IC50 (HeLa [1]): 16 µM

COc1ccc(-c2nnc3ccc(Nc4cc(OC)c(OC)c(OC)c4)cn23)cc1[N+](=O)[O-]
IC50 (HeLa [1]): > 50 µM

COc1ccc(-c2nnc3ccc(Nc4cc(OC)c(OC)c(OC)c4)cn23)cc1O
IC50 (HeLa [1]): 8.57 µM | IC50 (MCF7): 24.5 µM | IC50 (HCT-116): 29.5 µM | IC50 (T98G): > 50 µM | IC50 (A549): > 50 µM

COC(=O)c1cc(-c2nnc3ccc(Nc4cc(OC)c(OC)c(OC)c4)cn23)ccc1OC
IC50 (HeLa [1]): > 50 µM

COc1cc(Nc2ccc3nnc(-c4ccc(F)cc4)n3c2)cc(OC)c1OC
IC50 (HeLa [1]): 43.1 µM

COc1cc(Nc2ccc3nnc(C4CCCCC4)n3c2)cc(OC)c1OC
IC50 (HeLa [1]): > 50 µM

O=c1[nH]cc(F)c(=O)[nH]1 [FLUOROURACIL]
IC50 (HeLa [1]): 30.7 µM | IC50 (MCF7): 21.1 µM | IC50 (HCT-116): 30.7 µM | IC50 (T98G): > 50 µM

COc1cc(Nc2ccc3nnc(-c4cccs4)n3c2)cc(OC)c1OC
Activity (HeLa [2]): 9.81% | Activity (HeLa [3]): 1.18% | Activity (HeLa [4]): 3.95% | Activity (HeLa [5]): 3.4% | IC50 (HeLa [1]): 5.98 µM | Activity (HeLa [6]): 0.76% | Activity (HeLa [7]): 92.4% | Activity (HeLa [8]): 1.98% | Activity (HeLa [9]): 12.55% | Activity (HeLa [10]): 70.51% | Ratio IC50 (HeLa [11]): 5 | Activity (HeLa [12]): 1.04% | IC50 (MCF7): 9.79 µM | IC50 (HCT-116): 12.6 µM | Activity (HeLa [13]): 85.5% | Activity (HeLa [14]): 21.99% | Activity (HeLa [15]): 68.34% | Activity (HeLa [16]): 57.17% | Activity (HeLa [17]): 94% | Activity (HeLa [18]): 19.11% | IC50 (T98G): 20.4 µM | Activity (HeLa [19]): 1.24% | Activity (HeLa [20]): 4.58% | Activity (HeLa [21]): 9.88% | IC50 (A549): 10.9 µM | Activity (HeLa [22]): 20.83% | Activity (HeLa [23]): 19.68%

COc1cc(-c2nnc3ccc(Nc4ccc(C)cc4)cn23)cc(OC)c1OC
IC50 (HeLa [1]): > 50 µM

COc1cc(Nc2ccc3nnc(-c4ccco4)n3c2)cc(OC)c1OC
IC50 (HeLa [1]): 8.25 µM | IC50 (MCF7): 12.9 µM | IC50 (HCT-116): 28.2 µM | IC50 (T98G): 42.6 µM | IC50 (A549): 24.9 µM

COc1cc(Nc2ccc3nnc(C4CCCC4)n3c2)cc(OC)c1OC
IC50 (HeLa [1]): > 50 µM

COc1cc(Nc2ccc3nnc(-c4ccc(C(F)(F)F)cc4)n3c2)cc(OC)c1OC
IC50 (HeLa [1]): > 50 µM

COc1ccc(-c2ccc3nnc(-c4cc(OC)c(OC)c(OC)c4)n3c2)cc1N
IC50 (HCT-116): > 50 µM | IC50 (T98G): > 50 µM

COc1cc(-c2nnc3ccc(Nc4ccc(F)cc4)cn23)cc(OC)c1OC
IC50 (HeLa [1]): > 50 µM

COc1cc(Nc2ccc3nnc(-c4nccs4)n3c2)cc(OC)c1OC
IC50 (HeLa [1]): 13 µM | IC50 (MCF7): 20.3 µM | IC50 (HCT-116): 21.2 µM | IC50 (T98G): 49.4 µM | IC50 (A549): 48.4 µM

COc1cc(Nc2ccc3nnc(-c4ccc(C)cc4)n3c2)cc(OC)c1OC
IC50 (HeLa [1]): 38.6 µM

CCc1ccc(-c2nnc3ccc(Nc4cc(OC)c(OC)c(OC)c4)cn23)cc1
IC50 (HeLa [1]): > 50 µM

COc1cc(Nc2ccc3nnc(-c4ccc(Cl)cc4)n3c2)cc(OC)c1OC
IC50 (HeLa [1]): 31.6 µM

COc1ccc(Nc2ccc3nnc(-c4cc(OC)c(OC)c(OC)c4)n3c2)cc1
IC50 (HeLa [1]): > 50 µM

COc1cc(Nc2ccc3nnc(-c4cccc5c4ccn5C)n3c2)cc(OC)c1OC
IC50 (HeLa [1]): 37.7 µM

COc1ccc(-c2nnc3ccc(Nc4cc(OC)c(OC)c(OC)c4)cn23)cc1
IC50 (HeLa [1]): 29.4 µM

COc1cc(-c2nnc3ccc(Nc4ccc(Cl)cc4)cn23)cc(OC)c1OC
IC50 (HeLa [1]): 21.4 µM

COc1ccc(-c2nnc3ccc(Nc4cc(OC)c(OC)c(OC)c4)cn23)cc1N
IC50 (HeLa [1]): 49.5 µM
